Measurements as given in patent publication US8580919B2, “Polymer conjugates of GLP-1” (Nektar Therapeutics, priority 2005, dated 2013).
Ends that are not written are not given here.

Experiments:
[1] = test system: diabetic db/db mice; assay: In-vivo study of blood-glucose lowering effects, subcutaneous dose, diabetic db/db mice (Example 8); parameters: species or system mouse; settings: for blood glucose-lowering effect: single SC dose, FIG. 13
Description: Male diabetic mice (BKS.Cg-+Lepr db/+Lepr db/01aHsd) were purchased from Harlan Laboratories, Ltd. (Jerusalem, Israel). The 8-9 week old animals (30-40 gm) were placed in mouse cages (two animals per cage), and allowed at least 48 hours of acclimatization before the start of the study.
The study was divided into two phases: a feasibility phase and an evaluation phase.
In carrying out the feasibility phase, several groups of mice were used wherein four mice were used in each group. Data on the baseline glucose levels were gathered for each mouse for 2-3 days prior to drug dosing. This was performed to identify any outliers in the group of animals. On the day of treatment (Day 0) each animal was weighed. A time 0 day blood sample (5 to 10 μL) was collected from the tail vein. The glucose level (mg/dL) was measured using a glucose analyzer. Each animal was then dosed subcutaneously (SC) below the skin on the back. […] The animals were then allowed to return into their cages. Blood samples of 5 to 10 μL (<0.5% of 2 mL blood volume for a 35 g mouse) were removed through a needle prick/capillary tube at the following time points: −3, −2, −1, 0, 0.04, 0.16, 0.33, 1.0, 1.16 days. Each collected blood sample was tested for its glucose level. At the end of the study, the animals were humanely euthanized by carbon-dioxide asphyxiation.
In carrying out the evaluation phase, eight mice were used in each group. Data on the baseline glucose levels were gathered for each mouse three days prior to drug dosing. On the day of treatment (Day 0) each animal was weighed. A time 0 day blood sample (5 to 10 μL) was collected from the tail vein. The glucose level (mg/dL) was measured using a glucose analyzer. Each animal was then dosed subcutaneously (SC) below the skin on the back. […] The animals were then allowed to return into their cages. Blood samples of 5 to 10 μL (<0.5% of 2 mL blood volume for a 35 g mouse) were removed through a needle prick/capillary tube at the following time points: −3, −2, −1, 0, 0.04, 0.16, 0.33, 0.5, 1, 2, 3, 6 days. Each collected blood sample was for its glucose level. […]

[2] = Lability of the conjugate on attempted further purification (Example 23); format: physicochemical; settings: when attempting to further purify the conjugate
Text: The conjugate rapidly hydrolyzed to native GLP-1 and a GLP-1 derivative resulting from an intramolecular ring closure reaction due to reaction at the carbamate carbonyl by the imidazolyl nitrogen of the N-terminal histidine of GLP-1. The modified GLP-1 thereby released is shown below. Further purification was not pursued.

| Substance | blood glucose-lowering effect [1] | PD effect of 40 kilodalton PEG conjugate compared to 20 kilodalton PEG conjugate ([1]; SC 420 μg) | stability of the conjugate [2] |
| --- | --- | --- | --- |
| G2PEG2Fmoc20K-Lys-GLP-1: G2PEG2Fmoc20k-NHS covalently and releasably attached to a lysine position of GLP-1 (HAEGTFTSDVSSYLEGQAAKEFIAWLVKGRG; also: releasable G2PEG2Fmoc 20 kDa PEG on a lysine, position not given here; UniProt P01275 98-128, looked up) | confirmed | – | – |
| G2PEG2Fmoc40K-Lys-GLP-1: G2PEG2Fmoc40k-NHS covalently and releasably attached to a lysine position of GLP-1 (HAEGTFTSDVSSYLEGQAAKEFIAWLVKGRG; also: releasable G2PEG2Fmoc 40 kDa PEG on a lysine, position not given here; UniProt P01275 98-128, looked up) | confirmed | small but extended PD effect | – |
| N-terminal GLP-1 conjugate prepared by reaction with an mPEG-SBC reagent: counterpart N-terminal GLP-1 conjugate prepared by reaction with an mPEG-SBC reagent | – | – | extremely labile |
